Source: patent publication US20040197299A1, “Topically applicable cosmetic/dermatological compositions comprising hydrolase polypeptides having amidase activity and/or products modulating the activity thereof” (SOCIETE L'OREAL, S.A., priority 2003, published 2004)

What was measured:
corneodesmosin = assay: Corneodesmosin signal after incubation of SC acetone powder with semi-purified AGA (immunoblot); assay type: biochemical; conditions: 8 hours, 37° C., pH 8
Procedure: An SC acetone powder obtained by the “varnish stripping” technique as described by Mehul B. et al. (2000, The Journal of Biological Chemistry, Vol. 275, No. 17, 12841-12847) is incubated with a semi-purified AGA extract in the presence or otherwise of 5 mM L-asparagine at the rate of 100 μl of incubation solution per mg of acetone powder. The incubations are carried out in 0.1 M Tris-HCl buffer, pH 8, at 37° C., for 8 hours, with stirring. A test t0 is made as well as a control: buffer alone.
The soluble proteins of each sample are then extracted under denaturing conditions (SDS, DTT and boiling). The total proteins are assayed according to the Bradford method and the concentrations are aligned at 0.6 mg/ml in Laemmli extraction buffer.
An SDS-PAGE separation is then carried out, followed by a transfer onto PVDF membrane marketed by Millipore. The corneodesmosin is immunodetected with the monoclonal antibody G3619 described in Serre G. et al. (1991, J. Invest. Dermatol., 97, 1061-1072) diluted 1/12500.
Each blot is then stained with a 0.03% amido black solution (SIGMA) in order to normalize the quantity of corneodesmosin relative to a quantification of the keratins.
FIG. 2 presents the variation of the corneodesmosin signal after incubation of various quantities of semi-purified AGA with an acetone powder for 8 hours.

[1] = target: T1, AGA activity purified from the SC (aspartylglucosaminidase, EC 3.5.1.26) (Homo sapiens, UniProt P20933); assay: AGA activity assay with the fluorescent substrate Asp-AMC; assay type: biochemical; conditions: L-asparagine used at 1.25 mM
T1 construct: led to the identification of the A chain of AGA (band of 24 kDa); and of the B chain of AGA (bands of 16 and 15 kDa); from tissue; host or cells: human stratum corneum, scraped from the anterior surface of the leg
T1 sequence (P20933 24-205 limits assumed): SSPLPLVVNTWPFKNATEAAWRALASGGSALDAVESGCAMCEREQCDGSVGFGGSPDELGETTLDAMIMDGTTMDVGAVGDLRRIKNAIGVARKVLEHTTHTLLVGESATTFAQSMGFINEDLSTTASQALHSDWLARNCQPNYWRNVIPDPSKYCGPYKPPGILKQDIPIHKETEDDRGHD
T1 sequence (P20933 206-346 limits assumed): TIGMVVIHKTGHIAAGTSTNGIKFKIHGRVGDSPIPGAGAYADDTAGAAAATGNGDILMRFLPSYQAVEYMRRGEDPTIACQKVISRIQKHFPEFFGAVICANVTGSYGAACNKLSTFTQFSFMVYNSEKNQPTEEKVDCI
Procedure: The purification of AGA is monitored by assaying of activity with the fluorescent substrate L-aspartic acid beta(7-amido-4-methylcoumarin) (Asp-AMC) according to the method described by Mononen I. T. et al., 1993, Analytical Biochemistry, 208, 372-374. 10 μl of each eluted fraction are incubated for 24 h at 37° C. with 100 μl of Asp-AMC substrate diluted to 1 mM in 0.1 M Tris-HCl buffer, pH 8. The fluorescence is quantified on a Biolumin reader (excitation/emission: 340/450 nm).
The AGA activity was assayed with the substrate Asp-AMC in various SC extracts.

| Molecule | variation of the quantity of corneodesmosin (prodesquamating effect) (corneodesmosin; SC acetone powder incubated with increasing quantities of semi-purified AGA) | inhibition of the AGA activity purified from the SC [1] | inhibition of the AGA-induced decrease in corneodesmosin (corneodesmosin; L-asparagine at 5 mM, 10 μl of AGA condition) |
| --- | --- | --- | --- |
| aspartylglucosaminidase AGA (EC 3.5.1.26) | decrease in the quantity of corneodesmosin |  |  |
| NC(=O)C[C@H](N)C(=O)O [L-asparagine] |  | inhibit the AGA activity | inhibits this effect |
